From PubChem BioAssay (NCI)
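Growth conditions: 96-well plates. Treatment: test compound, 48 hours, 5 concentrations. Analysis: linear interpolation between bracketing concentrations; unreached endpoints set to highest concentration. GI50 is the concentration that inhibits growth by half. TGI: total growth inhibition.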

Key:
Assay in all cases: growth of human tumour cells (NCI), 48 h
[1] = system: MDA-MB-468 breast
[2] = system: 786-0 renal
[3] = system: A498 renal
[4] = system: A549 NSCLC
[5] = system: ACHN renal
[6] = system: BT-549 breast
[7] = system: CAKI-1 renal
[8] = system: CCRF-CEM leukemia
[9] = system: DU-145 prostate
[10] = system: EKVX NSCLC
[11] = system: HCC-2998 colon
[12] = system: HCT-116 colon
[13] = system: HCT-15 colon
[14] = system: HL-60(TB) leukemia
[15] = system: HOP-62 NSCLC
[16] = system: HOP-92 NSCLC
[17] = system: HS 578T breast
[18] = system: HT29 colon
[19] = system: IGROV1 ovarian
[20] = system: KM12 colon
[21] = system: LOX IMVI melanoma
[22] = system: M14 melanoma
[23] = system: MALME-3M melanoma
[24] = system: MCF7 breast
[25] = system: MDA-MB-231 breast
[26] = system: MDA-MB-435
[27] = system: MOLT-4 leukemia
[28] = system: NCI-H226 lung
[29] = system: NCI-H23 lung
[30] = system: NCI-H460 lung
[31] = system: NCI-H522 lung
[32] = system: NCI/ADR-RES ovarian
[33] = system: OVCAR-3 ovarian
[34] = system: OVCAR-4 ovarian
[35] = system: OVCAR-5 ovarian
[36] = system: OVCAR-8 ovarian
[37] = system: PC-3 prostate
[38] = system: RPMI-8226 leukemia
[39] = system: RXF 393 renal
[40] = system: SF-268 CNS
[41] = system: SF-295 CNS
[42] = system: SF-539 CNS
[43] = system: SK-MEL-2 melanoma
[44] = system: SK-MEL-28 melanoma
[45] = system: SK-MEL-5 melanoma
[46] = system: SK-OV-3 ovarian
[47] = system: SN12C renal
[48] = system: SNB-19 CNS
[49] = system: SNB-75 CNS
[50] = system: SR leukemia
[51] = system: T-47D breast
[52] = system: TK-10 renal
[53] = system: U251 CNS
[54] = system: UACC-257 melanoma
[55] = system: UACC-62 melanoma
[56] = system: UO-31 renal

SMILES: C=C(C)[C@@H]1CC[C@]2(C(=O)NS(=O)(=O)c3ccccc3)CC[C@]3(C)[C@H](CC[C@@H]4[C@@]5(C)CC[C@H](OC(=O)NS(=O)(=O)c6ccccc6)C(C)(C)[C@@H]5CC[C@]43C)[C@@H]12
- GI50 [1]: 2.22 µM
- TGI [1]: 10.2 µM

SMILES: C=C1CCC2C3(C)COC(c4ccccc4Cl)OC3CCC2(C)C1/C=C/C1=CCOC1=O (stereo not drawn)
- GI50 [1]: 4.96 µM
- TGI [1]: > 100 µM

SMILES: O=C1c2cc3c(cc2-c2c1c1ccc(Cl)cc1c(=O)n2CCCn1ccnc1)OCO3
- GI50 [1]: < 0.01 µM
- TGI [1]: 0.0144 µM

SMILES: COc1ccc2[nH]c(C(=O)OCc3ccc4c(Cl)cc(Cl)c(O)c4n3)cc2c1
- GI50 [1]: 1.36 µM
- TGI [1]: 2.77 µM

SMILES: COc1ccc(S(=O)(=O)N(C(C)=O)c2ccccc2/C=C/c2cc[n+]([O-])cc2)cc1
- GI50 [1]: 0.461 µM
- TGI [1]: > 10 µM

SMILES: CC(C)(C)OC(=O)Nc1ccc2c(c1)C(NC(=O)Nc1cccc(C#N)c1)CC(C)(C)O2 (stereo not drawn)
- GI50 [1]: 0.381 µM
- TGI [1]: 9.9 µM

SMILES: COc1cc(NCCCCCN=C(N)NC(N)=NC(C)C)c2ncccc2c1
- GI50 [1]: 0.0903 µM
- TGI [1]: 0.594 µM

SMILES: CCn1c(-c2nonc2N)nc2c(N3CCCC3)nccc21
- GI50 [1]: 8.92 µM
- TGI [1]: > 25 µM

SMILES: COc1ccc(NC(=O)Cn2c(/C=C/c3ccc(N(C)C)cc3)nc3ccccc3c2=O)cc1
- GI50 [2]: 2.03 µM
- TGI [2]: 4.62 µM
- GI50 [3]: 4.19 µM
- TGI [3]: 19.8 µM
- GI50 [4]: 13.9 µM
- TGI [4]: > 100 µM
- GI50 [5]: 3.25 µM
- TGI [5]: 11.4 µM
- GI50 [6]: 2.01 µM
- TGI [6]: 5.43 µM
- GI50 [7]: 4.12 µM
- TGI [7]: 20.7 µM
- GI50 [8]: > 100 µM
- TGI [8]: > 100 µM
- GI50 [9]: 7.64 µM
- TGI [9]: > 100 µM
- GI50 [10]: 40.3 µM
- TGI [10]: > 100 µM
- GI50 [11]: 6.21 µM
- TGI [11]: > 100 µM
- GI50 [12]: 3.05 µM
- TGI [12]: 11.2 µM
- GI50 [13]: 13.6 µM
- TGI [13]: > 100 µM
- GI50 [14]: > 100 µM
- TGI [14]: > 100 µM
- GI50 [15]: 5 µM
- TGI [15]: 20.6 µM
- GI50 [16]: 3.65 µM
- TGI [16]: 18.9 µM
- GI50 [17]: 4.88 µM
- TGI [17]: 74.9 µM
- GI50 [18]: 6.32 µM
- TGI [18]: > 100 µM
- GI50 [19]: 36.7 µM
- TGI [19]: > 100 µM
- GI50 [20]: > 100 µM
- TGI [20]: > 100 µM
- GI50 [21]: 4.48 µM
- TGI [21]: > 100 µM
- GI50 [22]: 12.9 µM
- TGI [22]: > 100 µM
- GI50 [23]: 3.95 µM
- TGI [23]: 24 µM
- GI50 [24]: 4.35 µM
- TGI [24]: > 100 µM
- GI50 [25]: 2.61 µM
- TGI [25]: 6.84 µM
- GI50 [26]: 7.19 µM
- TGI [26]: > 100 µM
- GI50 [1]: 3.11 µM
- TGI [1]: 21.2 µM
- GI50 [27]: > 100 µM
- TGI [27]: > 100 µM
- GI50 [28]: 2.31 µM
- TGI [28]: 6.24 µM
- GI50 [29]: 3.79 µM
- TGI [29]: 22.5 µM
- GI50 [30]: 3.63 µM
- TGI [30]: > 100 µM
- GI50 [31]: 5.69 µM
- TGI [31]: 29.4 µM
- GI50 [32]: 3.51 µM
- TGI [32]: 20.4 µM
- GI50 [33]: > 100 µM
- TGI [33]: > 100 µM
- GI50 [34]: 28.9 µM
- TGI [34]: > 100 µM
- GI50 [35]: > 100 µM
- TGI [35]: > 100 µM
- GI50 [36]: 13.5 µM
- TGI [36]: > 100 µM
- GI50 [37]: 5.6 µM
- TGI [37]: > 100 µM
- GI50 [38]: 7.14 µM
- TGI [38]: > 100 µM
- GI50 [39]: 2.09 µM
- TGI [39]: 5.27 µM
- GI50 [40]: 12.4 µM
- TGI [40]: > 100 µM
- GI50 [41]: 3 µM
- TGI [41]: 11.9 µM
- GI50 [42]: 1.79 µM
- TGI [42]: 3.67 µM
- GI50 [43]: 16.1 µM
- TGI [43]: 47.9 µM
- GI50 [44]: 6.07 µM
- TGI [44]: > 100 µM
- GI50 [45]: 2.96 µM
- TGI [45]: 10.4 µM
- GI50 [46]: 3.22 µM
- TGI [46]: 8.35 µM
- GI50 [47]: > 100 µM
- TGI [47]: > 100 µM
- GI50 [48]: 13.1 µM
- TGI [48]: 40.3 µM
- GI50 [49]: 3.86 µM
- TGI [49]: 39.9 µM
- GI50 [50]: > 100 µM
- TGI [50]: > 100 µM
- GI50 [51]: 4.27 µM
- TGI [51]: > 100 µM
- GI50 [52]: 6.22 µM
- TGI [52]: 24.2 µM
- GI50 [53]: 3.72 µM
- TGI [53]: 18.5 µM
- GI50 [54]: 84.5 µM
- TGI [54]: > 100 µM
- GI50 [55]: 2.96 µM
- TGI [55]: 13.1 µM
- GI50 [56]: 2.92 µM
- TGI [56]: 31.3 µM
